Results reported in patent US5855905A, “Compound preparation for the treatment of hypogonadal men and men with hypophyseal diseases” (priority 1996, dated 1999).

Columns and labels:
[1] = test system: endogenic testosterone production; conditions: cited from earlier work; for inhibition of endogenic testosterone production: Oettel 1993
[2] = Pharmacokinetic behaviour of mesterolone in combination with estradiol valerate, single oral application, 24 healthy young male test persons; conditions: human, in vivo
Method: Pharmacokinetic Behaviour of Mesterolone in Combination with Estradiol Valerate (EV)
In a randomized study, the kinetic behaviour of mesterolone (25 mg tablet) in combination with EV (1 mg lozenge) after a single oral application was examined in 24 healthy young male test persons.
Each test person was administered mesterolone and EV after a monitored fasting period of 12 hours. After the application, 18 blood samples were taken from each test person over a period of 60 hours.

[3] = Pharmacokinetic behaviour of DHT (patch) in combination with estriol gel, transdermal, 18 healthy young male test persons; conditions: human, in vivo, topical or ocular
Method: Pharmacokinetic Behaviour of Dihydrotestosterone (DHT) in Combination with Estriol Gel
In a randomized study, the pharmacokinetic behaviour of DHT and estriol after transdermal application was examined in 18 healthy young male test persons.
The DHT patch contains 150 mg of the active ingredient and was left on the test persons' skin for 24 hours. This galenic form releases 6 mg of DHT per day.
The estriol gel contains 5 mg of active ingredient in 0.5 g of gel. This gel formulation was applied one time to 150 cm^2 of skin (forearm).
For analysis, 12 blood samples were taken from each test person after the application over a period of 48 hours.

[4] = Clinical study in hypogonadal men: serum hormone levels
[5] = test system: cholesterol, lipoprotein and lipase levels; conditions: testosterone esters; cited from earlier work
hypogonadal men = experiment: Clinical study in 23 hypogonadal men: clinical findings (efficacy and side effects)
[6] = cited from earlier work
[7] = 5α-dihydrotestosterone vs testosterone; cited from earlier work
[8] = mesterolone 25 mg tablet + EV 1 mg lozenge, single oral

## C[C@H]1CC(=O)C[C@@H]2CC[C@H]3[C@@H]4CC[C@H](O)[C@@]4(C)CC[C@@H]3[C@]21C [mesterolone]
[1]
  inhibition of endogenic testosterone production: not been observed
[2]; 60 h after single oral mesterolone 25 mg + EV 1 mg
  concentration at 60 h: 0.48 ng/mL
[2]; [8]
  Cmax: 6.9 ng/mL
  Tmax: 8.9 h
  half-life: 13.2 h
[2]; mesterolone 25 mg tablet + EV 1 mg lozenge, single oral, 60 h
  AUC at 60 h: 177 ng·h/mL

## C[C@]12CC[C@@H]3c4ccc(O)cc4CC[C@H]3[C@@H]1C[C@@H](O)[C@@H]2O [estriol]
[3]; 5 mg
  Cmax: 0.00882 ± 0.00254 ng/mL

## C[C@]12CC[C@@H]3c4ccc(O)cc4CC[C@H]3[C@@H]1CC[C@@H]2O [estradiol, 17β-estradiol]
[1]
  inhibition of endogenic testosterone production: not been observed

## CCCCCCC(=O)O[C@H]1CC[C@H]2[C@@H]3CCC4=CC(=O)CC[C@]4(C)[C@H]3CC[C@]12C [testosterone enanthate]
[1]; patients with working gonadal testosterone biosynthesis (Humpel and Oettel 1994)
  period of reversible inhibition of endogenic testosterone production: about 2 weeks
[4]; 12 months
  LH levels in the serum / LH synthesis: reduced in the serum of all participants
[4]; Arm 1, 250 mg i.m.
  maximum values compared with testosterone levels in healthy men: significant increase
[4]; Arm 1, testosterone, subsequent applications
  cumulation: no cumulation
[5]
  effect on HDL cholesterol: can cause a minor suppression
  effect on total and LDL cholesterol levels: only have a minor effect
Hypogonadal men; 12 months
  gynaecomastia: Five out of 12
  increase in the size of the prostatic glands / prostatic hyperplasia: could not be detected
  pelage increase: All men experienced a pelage increase
  prostate-specific antigen (PSA), change: slightly up in all patients
  volume/weight of testicles: the volume of their testicles got smaller
Hypogonadal men; Arm 1
  Collagen depletion: not detected
  thickening of the skin, increase in water retention, tension and elasticity of the tissue: All participants in the study showed a thickening of the skin, an increase in water retention, and an improvement of the tension and elasticity of the tissue
Hypogonadal men; Arm 1, 12 months
  improvement of the morning erection: Nine out of 12
Hypogonadal men; Arm 1, n=12
  patients free of complaints: Nine
Hypogonadal men; Arm 1 after 4 months of treatment, Arm 2 12 months
  increased susceptibility to acne / development of acne: Seven of the 12
Hypogonadal men; Arm 1 after 4 months, Arm 2 12 months
  voice pitch / voice change: voice pitch of all men lowered towards a bass tone
Hypogonadal men; Arm 1 n=12, Arm 2 n=11, 12 months
  increase in penis size: 11 men/patients
Hypogonadal men; after 6 months of treatment
  bone density: All patients showed an apparent increase in bone density
Hypogonadal men; hot flashing, exhaustion, weakness of concentration, reduced efficiency, disgruntlement, disturbances of libido and potency
  symptoms of andropause: became less frequent

## C[C@]12CC[C@H]3[C@@H](CCC4=CC(=O)CC[C@@]43C)[C@@H]1CC[C@@H]2O [testosterone]
[6]; intramuscular injection (Tenover 1992)
  estradiol levels in the plasma: doubled
[6]; percutaneous application (Kuhn 1986)
  increase of estradiol levels in the plasma: 70%

## C[C@]12CCC(=O)C[C@@H]1CC[C@@H]1[C@@H]2CC[C@]2(C)[C@@H](O)CC[C@@H]12 [DHT, 5α-dihydrotestosterone]
[1]
  inhibition of endogenic testosterone production: not been observed
[3]; 150 mg
  Cmax: 4.51 ± 1.23 ng/mL
[7]
  activity relative to testosterone: about twice as active as testosterone
